In PubChem BioAssay AID588665 (The Scripps Research Institute Molecular Screening Center, 2011):
The source made the active and inactive calls.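 Rule for the calls: active = EGR1 protein level in colon cancer cells shifted at least 30% from solvent-only cells, up or down; inactive = shift under 30% either way.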

Target: Early growth response protein 1 (Homo sapiens) (UniProt P18146)
Experiment: altered EGR1 protein amount, SW620 – cell-based, SW620 colorectal carcinoma, chemiluminescent western blot, counter-screen for KLF5 inhibitor project, late-stage follow-up (AID 588665)
Details: SW620 EGR1 protein level, 24 h, at 10 µM, stronger effect = higher value

Sequence of Early growth response protein 1 (Homo sapiens) (P18146 whole entry, looked up): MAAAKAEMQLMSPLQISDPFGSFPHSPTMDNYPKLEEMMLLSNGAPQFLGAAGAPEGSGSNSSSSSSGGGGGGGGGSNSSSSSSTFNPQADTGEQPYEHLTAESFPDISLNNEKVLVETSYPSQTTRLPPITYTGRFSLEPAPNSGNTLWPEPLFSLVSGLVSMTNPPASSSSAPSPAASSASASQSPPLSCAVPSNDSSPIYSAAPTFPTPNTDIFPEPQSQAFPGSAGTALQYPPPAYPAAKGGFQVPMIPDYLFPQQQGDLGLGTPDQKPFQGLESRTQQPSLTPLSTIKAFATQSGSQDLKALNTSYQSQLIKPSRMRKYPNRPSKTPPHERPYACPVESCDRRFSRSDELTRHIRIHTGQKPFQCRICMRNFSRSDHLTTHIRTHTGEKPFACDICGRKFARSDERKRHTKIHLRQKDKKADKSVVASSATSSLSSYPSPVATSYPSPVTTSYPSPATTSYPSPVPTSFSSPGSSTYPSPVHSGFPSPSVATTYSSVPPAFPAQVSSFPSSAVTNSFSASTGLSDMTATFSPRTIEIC

## CN(C(=O)CNC(=O)/C=C/c1cccc(Cl)c1)C1CCS(=O)(=O)CC1
  inhibition: 37%

## CN(C(=O)COC(=O)/C=C/c1cccc([N+](=O)[O-])c1)C1CCS(=O)(=O)C1 (stereo not drawn)
  inhibition: -14.8% (inactive)

## CN(C(=O)CNC(=O)/C=C/c1cccc(Cl)c1)C1CCS(=O)(=O)C1 (stereo not drawn)
  inhibition: -24.8% (inactive)
